In assay [1] the target is GST-tagged recombinant full-length human PIM-2 (Homo sapiens (Human), UniProt Q9P1W9). As to the kind of experiment: PIM-2 Enzyme Assay. To be noted: for pIC50: read-out: PIM-2 IC50.
A further assay has as its target PIM-1 (Homo sapiens (Human), UniProt P11309). As to the kind of experiment: PIM-1 Enzyme Assay. The format is biochemical. The protocol:
The amount of radiolabeled product is then measured by liquid scintillation counting. The final buffer conditions were as follows: 20 mM K^+MOPS, pH 7.4, 10 mM MgCl2, 0.005% Tween-20, 1 mM DTT. […] Incubations were carried out for 60 min at 22° C. and quenched with 75 μL of 200 mM H3PO4, filtered through a Whatman P81 plate and washed (1×200 μL and 5×100 μL ) with 200 mM H3PO4. Liquid scintillation cocktail (50 μL ) was then added per well, and the plate was counted for 30 s/well using a TopCount NXT.
One-μL aliquots of these were then transferred to the assay mixtures above to give a final concentration of DMSO of 2%. […] For each plate, percent of control (POC) values were calculated for each well. IC50's were estimated from the POC's using a standard 4-parameter logistic model. The IC50 is defined as the concentration of inhibitor at which the POC equals 50 for the fitted curve.

What is called pIC50 is the negative decadic logarithm of the IC50, by convention in mol/L. As usually defined, the IC50 is the midpoint of a concentration-inhibition curve.

pIC50: −log10 of the molar value. Structures can show the parent of a compound that is named as a salt. Where two headings read alike, the source gives them in different places.

Sequence of GST-tagged recombinant full-length human PIM-2 (Q9P1W9 whole entry): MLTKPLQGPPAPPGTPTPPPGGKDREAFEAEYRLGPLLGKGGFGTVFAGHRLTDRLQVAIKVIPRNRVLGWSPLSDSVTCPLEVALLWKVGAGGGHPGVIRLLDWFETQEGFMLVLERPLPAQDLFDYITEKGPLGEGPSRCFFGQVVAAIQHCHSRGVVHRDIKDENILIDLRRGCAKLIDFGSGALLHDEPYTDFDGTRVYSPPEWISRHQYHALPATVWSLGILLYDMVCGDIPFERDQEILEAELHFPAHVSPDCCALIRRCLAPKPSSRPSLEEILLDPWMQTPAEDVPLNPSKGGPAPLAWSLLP
Sequence of PIM-1 (P11309 whole entry, species assumed): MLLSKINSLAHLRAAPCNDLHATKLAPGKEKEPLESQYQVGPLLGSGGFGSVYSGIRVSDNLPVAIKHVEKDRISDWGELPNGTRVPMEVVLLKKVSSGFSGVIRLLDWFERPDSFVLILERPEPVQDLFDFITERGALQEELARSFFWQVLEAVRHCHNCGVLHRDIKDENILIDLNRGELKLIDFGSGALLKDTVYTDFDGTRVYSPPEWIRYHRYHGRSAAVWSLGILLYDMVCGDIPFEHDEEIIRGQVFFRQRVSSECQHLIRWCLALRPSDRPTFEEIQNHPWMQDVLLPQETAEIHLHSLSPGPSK

Take `Cc1ccn2c(-c3ccc4cccc(OCC(C)(C)CN)c4n3)nnc2c1` [Example 123, 2,2-dimethyl-3-(2-(7-methyl-[1,2,4]triazolo[4,3-a]pyridin-3-yl)quinolin-8-yloxy)propan-1-amine trihydrochloride]: the pIC50 in assay [1] (4 μM ATP, […] PIM-2) was 6.81; against PIM-1 (35 μM ATP, 0.25 nM PIM-1), 9.05.
On to `FC1(COc2cccc3ccc(-c4nnc5ccc(-c6ccccc6)cn45)nc23)CCNCC1` [Example 81, 8-((4-fluoropiperidin-4-yl)methoxy)-2-(6-phenyl-[1,2,4]triazolo[4,3-a]pyridin-3-yl)quinoline dihydrochloride], for which the pIC50 is 6.85 in assay [1] (4 μM ATP, […] PIM-2) and 9.35 against PIM-1.
In the case of `F[C@@H]1CCNCC[C@H]1Oc1cccc2ccc(-c3nnc4ccc(C5CC5)cn34)nc12` (relative stereo) [Example 98, 2-(6-cyclopropyl-[1,2,4]triazolo[4,3-a]pyridin-3-yl)-8-((trans)-5-fluoroazepan-4-yloxy)quinoline dihydrochloride], the pIC50 in assay [1] (4 μM ATP, […] PIM-2) is 6.18; against PIM-1 (35 μM ATP, 0.25 nM PIM-1), 9.15.
For `FC1CCNCCC1Oc1cccc2ccc(-c3nnc4ccccn34)nc12` (stereo not shown) [Example 46, 2-([1,2,4]triazolo[4,3-a]pyridin-3-yl)-8-(5-fluoroazepan-4-yloxy)quinoline], the IC50 in assay [1] (PIM-2 IC50 (nM), 4 μM ATP, […] PIM-2) was found to be 96 nM. The compound further had a pIC50 against PIM-1 (35 μM ATP, 0.25 nM PIM-1) of 9.00.
On to `FCCN1CCC(F)(COc2cccc3ccc(-c4nnc5ccccn45)nc23)CC1` [Example 105, 2-([1,2,4]triazolo[4,3-a]pyridin-3-yl)-8-((4-fluoro-1-(2-fluoroethyl)piperidin-4-yl)methoxy)quinoline dihydrochloride], for which the pIC50 in assay [1] (4 μM ATP, […] PIM-2) is 6.39; on PIM-1 (35 μM ATP, 0.25 nM PIM-1), 8.06.
In the same order, the values of `COC1(COc2cccc3ccc(-c4nnc5cc(C)ccn45)nc23)CCNCC1` [Example 125, 8((4-methoxypiperidin-4-yl)methoxy)-2-(7-methyl-[1,2,4]triazolo[4,3-a]pyridin-3-yl)quinoline di-trifluoroacetate] are 6.37 and 9.00.
Consider `FC1(COc2cccc3ccc(-c4nnc5ccccn45)nc23)CNC1` [Example 107, 2-([1,2,4]triazolo[4,3-a]pyridin-3-yl)-8-((3-fluoroazetidin-3-yl)methoxy)quinoline dihydrochloride], for which the pIC50 in assay [1] (4 μM ATP, […] PIM-2) is 6.00; against PIM-1 (35 μM ATP, 0.25 nM PIM-1) it was 8.03.
For the compound `F[C@@H]1CNCC[C@@H]1Oc1cccc2ccc(-c3nnc4ccc(Br)cn34)nc12` (relative stereo) [Example 78, 2-(6-bromo-[1,2,4]triazolo[4,3-a]pyridin-3-yl)-8-((cis)-3-fluoropiperidin-4-yloxy)quinoline dihydrochloride], the pIC50 in assay [1] was 5.89; against PIM-1 (35 μM ATP, 0.25 nM PIM-1), 8.10.
For the compound `Fc1cc(OCC2(F)CCNCC2)c2nc(-c3nnc4ccccn34)ccc2c1` [Example 106, 2-([1,2,4]triazolo[4,3-a]pyridin-3-yl)-6-fluoro-8-((4-fluoropiperidin-4-yl)methoxy)quinoline dihydrochloride], the pIC50 is 7.60 in assay [1] (4 μM ATP, […] PIM-2) and 9.30 on PIM-1 (35 μM ATP, 0.25 nM PIM-1).
In the same order, the values of `OC1(COc2cccc3ccc(-c4nnc5ccccn45)nc23)CCNCC1` [Example 72] are 6.23 and 8.28.
In the same order, the values of `COc1ccc2nnc(-c3ccc4cc(F)cc(OCC5(F)CCNCC5)c4n3)n2c1` [Example 110, 6-fluoro-8-((4-fluoropiperidin-4-yl)methoxy)-2-(6-methoxy-[1,2,4]triazolo[4,3-a]pyridin-3-yl)quinoline dihydrochloride] are 6.79 and 8.72.
The like results for `CCC(CO)COc1cccc2ccc(-c3nnc4ccccn34)nc12` (stereo not shown) [Example 130] were, in that order, 6.00 and 8.24.
In the case of `FC1CNCCC1Oc1cccc2ccc(-c3nnc4ccccn34)nc12` (single isomer, unassigned) [Example 96, 2-([1,2,4]triazolo[4,3-a]pyridin-3-yl)-8-((trans)-3-fluoropiperidin-4-yloxy)quinoline dihydrochloride], the pIC50 in assay [1] (4 μM ATP, […] PIM-2, dihydrochloride) is 6.00; on PIM-1 (dihydrochloride) it was 7.97.
With `Fc1ccc2nnc(-c3ccc4cccc(OCC5(F)CCNCC5)c4n3)n2c1` [Example 103, 2-(6-fluoro-[1,2,4]triazolo[4,3-a]pyridin-3-yl)-8-((4-fluoropiperidin-4-yl)methoxy)quinoline dihydrochloride], the pIC50 in assay [1] was 7.18; at PIM-1 (35 μM ATP, 0.25 nM PIM-1), 8.85.
Consider `NC(=O)CN1CCC(F)(COc2cccc3ccc(-c4nnc5ccccn45)nc23)CC1` [Example 83, 2-(4-((2-([1,2,4]triazolo[4,3-a]pyridin-3-yl)quinolin-8-yloxy)methyl)-4-fluoropiperidin-1-yl)acetamide], for which the pIC50 in assay [1] (4 μM ATP, […] PIM-2) was 6.71; at PIM-1 (35 μM ATP, 0.25 nM PIM-1), 8.40.
Regarding `COC[C@@H]1CC(Oc2cccc3ccc(-c4nnc5ccccn45)nc23)CCN1` (stereo partly shown) [Example 57], the pIC50 was 6.32 in assay [1] (4 μM ATP, […] PIM-2) and 8.40 against PIM-1 (35 μM ATP, 0.25 nM PIM-1).
Take `Fc1cc(OCC2(F)CNC2)c2nc(-c3nnc4ccccn34)ccc2c1` [Example 108, 2-([1,2,4]triazolo[4,3-a]pyridin-3-yl)-6-fluoro-8-((3-fluoroazetidin-3-yl)methoxy)quinoline Dihydrochloride]: the pIC50 is 6.31 in assay [1] (4 μM ATP, […] PIM-2) and 8.14 at PIM-1.
In the same order, the values of `CN1CCC(F)(COc2cccc3ccc(-c4nnc5ccccn45)nc23)CC1` [Example 84, 2-([1,2,4]triazolo[4,3-a]pyridin-3-yl)-8-((4-fluoro-1-methylpiperidin-4-yl)methoxy)quinoline dihydrochloride] are 7.14 and 8.70.
As for `COC1(COc2cc(F)cc3ccc(-c4nnc5ccccn45)nc23)CCCNCC1` (stereo not shown) [Example 114, 2-([1,2,4]triazolo[4,3-a]pyridin-3-yl)-6-fluoro-8-((4-methoxyazepan-4-yl)methoxy)quinoline bis-trifluoroacetate], the pIC50 in assay [1] (4 μM ATP, […] PIM-2) was 7.07; on PIM-1 (35 μM ATP, 0.25 nM PIM-1) it was 9.15.
For the compound `CCN1CCC(F)(COc2cccc3ccc(-c4nnc5ccccn45)nc23)CC1` [Example 104, 2-([1,2,4]triazolo[4,3-a]pyridin-3-yl)-8((1-ethyl-4-fluoropiperidin-4-yl)methoxy)quinoline dihydrochloride], the pIC50 in assay [1] (4 μM ATP, […] PIM-2) was 6.72; against PIM-1 (35 μM ATP, 0.25 nM PIM-1) it was 8.41.
On to `CC(C)(CN)COc1ccc(F)c2ccc(-c3nnc4ccccn34)nc12` [Example 43, 3-(2-([1,2,4]triazolo[4,3-a]pyridin-3-yl)-5-fluoroquinolin-8-yloxy)-2,2-dimethylpropan-1-amine], for which the pIC50 was 5.00 in assay [1] (4 μM ATP, […] PIM-2) and 6.86 against PIM-1 (35 μM ATP, 0.25 nM PIM-1).
With `Fc1ccc2nnc(-c3ccc4cccc(O[C@@H]5CCNCC[C@H]5F)c4n3)n2c1` (relative stereo) [Example 102, 2-(6-fluoro-[1,2,4]triazolo[4,3-a]pyridin-3-yl)-8-((trans)-5-fluoroazepan-4-yloxy)quinoline dihydrochloride], the pIC50 was 6.36 in assay [1] (4 μM ATP, […] PIM-2) and 8.31 against PIM-1.
Turning to `CC(C)(CN)COc1cccc2ccc(-c3nnc4ccc(-c5ccccc5)cn34)nc12` [Example 65, 2,2-Dimethyl-3-(2-(6-phenyl-[1,2,4]triazolo[4,3-a]pyridin-3-yl)quinolin-8-yloxy)propan-1-amine dihydrochloride], the pIC50 in assay [1] (4 μM ATP, […] PIM-2) was 6.76; against PIM-1 (35 μM ATP, 0.25 nM PIM-1), 9.10.

For the origin of these results see patent US8575145B2, “Triazolopyridine compounds as PIM kinase inhibitors” (Array BioPharma Inc., priority 2008, dated 2013).
